Assay results reported in patent US20070243262A1, “Stable S-nitrosothiol formulations” (priority 2005, published 2007).

Tests used:
[1] = cited from earlier work
[2] = GSNO API (powder) stability by HPLC; format: physicochemical; settings: for GSNO % w/w at 5° C. / GSNO % w/w at −20° C. / GSNO % w/w at −80° C.: GSNO powder, HPLC
Description: GSNO powder was tested for stability at various temperatures over a three-month period of time, and each formulation was tested for stability at various temperatures over a six month period of time. Stability was determined by HPLC analysis at various times throughout the test period.

For `N[C@@H](CCC(=O)N[C@@H](CSN=O)C(=O)NCC(=O)O)C(=O)O` [GSNO, S-nitrosoglutathione], the “stability in aqueous solutions” value [1] is given as “decomposing in hours”, the “GSNO % w/w at 5° C.” value ([2]; 0 elapsed days) is given as 92.7 % w/w and the “GSNO % w/w at 5° C.” value ([2]; 14 elapsed days) is given as 84.6 % w/w. For the same compound, the “GSNO % w/w at 5° C.” value ([2]; 30 elapsed days) was 89.2 % w/w, the “GSNO % w/w at 5° C.” value ([2]; 90 elapsed days) was 80.0 % w/w and the “GSNO % w/w at −20° C.” value ([2]; 0 elapsed days) was 92.7 % w/w. For the same compound, the “GSNO % w/w at −20° C.” value ([2]; 14 elapsed days) was 90.6 % w/w, the “GSNO % w/w at −20° C.” value ([2]; 30 elapsed days) was 91.1 % w/w and the “GSNO % w/w at −20° C.” value ([2]; 90 elapsed days) was 89.7 % w/w. The “GSNO % w/w at −80° C.” value ([2]; 0 elapsed days) was 92.7 % w/w, the “GSNO % w/w at −80° C.” value ([2]; 30 elapsed days) was 91.4 % w/w and the “GSNO % w/w at −80° C.” value ([2]; 90 elapsed days) was 91.9 % w/w. For the same compound, the “stability of GSNO powder (in words)” value ([2]; temperatures above 0° C.) was “rapidly degrades”.
